# Measured values as given in US12320799B2, “Methods of measuring signaling pathway activity for selection of therapeutic agents” (Celcuity Inc., priority 2017, dated 2025).
# Where two headings read alike, the source gives them in different places.
# Tests used:
# [1] = test system: EGF pathway; assay: Pathway ultrasensitivity test (EC90/EC10 of activator agent), impedance biosensor; assay type: cell-based, human; conditions: for EC90: read-out: EC90 Concentration
# From the text: (§1) Biosensor and transducer: A 96-well impendence E-Plate (ACEA, San Diego, CA) was placed onto an xCELLigence RTCA MP Station impendence biosensor (ACEA, San Diego, CA). The biosensor measured simultaneously the impedance of every well. The change in impedance for a particular well is proportional to the number of cells and type of attachment the cells have with the impedance microplate. Changes in impedance indicate a response to activation of these small cell populations. Coatings: The 96-E-Plate were wells were coated with fibronectin and or collagen. Collagen is purchased from Advanced BioMatrix (Carlsbad, CA) and fibronectin from Sigma-Aldrich (St. Louis, MO). Tissue and cell samples: Five different samples of human cells from breast tumors (R131, R39, R36, R20, R82) and two different samples of human cells from non-small cell lung cancer (NSCLC) tumors were studied (C15 and C23). Any biomarkers that are used to guide selection of targeted therapy are listed in Table 20 for each patient if they were present. Signaling Pathways activator: NRG1, a HER3 agonist, was used to stimulate the HER3 pathway in each of the five breast cancer cell samples. The EC90 and EC10 concentrations of the signaling pathway activator agent were also derived for each breast cancer sample.
# (§2) In each of the two NSCLC cell samples, four different activating agents were used to stimulate either the EGF or HER3 pathways. The EC90 and EC10 concentrations of the signaling pathway activator agent were also derived for each NSCLC cell sample.
# (§3) Other Reagents: Standard media antibiotics (e.g. penicillin, streptomycin) and other buffers were purchased and used as delivered from ATCC (Manassas, VA, USA) or Life Technologies (Grand Island, NY). Procedure: For each test of a patient cell sample with two different concentrations of signaling pathway activator, six wells were seeded with approximately 15,000 cells in 120 uL culture media. […] The impedance recording of attachment and adhesion change was performed at 37° C., 5% CO2. Data was recorded on a continuous basis throughout the test, where the data presented is from the initial baseline level of cell attachment compared to the subsequent effects following the additions of two concentrations of the signaling pathway activator agent on the 12 different patient samples. Results:
# (§4) For each patient cell sample tested, output values were calculated for the signaling pathway activity measured after addition of the two different concentrations of the signaling pathway activator agent. To determine the sensitivity of the signaling pathway to the signaling pathway activator agent, the sensitivity was calculated using the two output values. When the ratio of the EC90 to EC10 is less than 81, the pathway is considered to be ultra-sensitive; otherwise the pathway is considered to be normally sensitive.
# [2] = test system: HER3 pathway; assay: as above; assay type: cell-based, human; conditions: for EC90: read-out: EC90 Concentration
# From the text: as §1, §2, §3, §4
# [3] = NSCLC cell sample C15, EGF pathway
# [4] = NSCLC cell sample C23, EGF pathway
# [5] = NSCLC cell sample C23, HER3 pathway
substance,measurement,setting,value
Amphiregulin,Pathway Sensitivity Status (normal or ultra),[1]; [3],"Ultra (When the ratio of the EC90 to EC10 is less than 81, the pathway is considered to be ultra-sensitive)"
same,Sensitivity Calculation Result (ratio of the EC90 to EC10 of activating agent),[1]; [3],65.65
same,EC10 Concentration,[1]; NSCLC tumor cell sample C15,0.0457 nM
same,EC90,[1]; NSCLC tumor cell sample C15,3 nM
Betacellulin,Pathway Sensitivity Status (normal or ultra),[1]; [3],"Ultra (When the ratio of the EC90 to EC10 is less than 81, the pathway is considered to be ultra-sensitive)"
same,Sensitivity Calculation Result (ratio of the EC90 to EC10 of activating agent),[1]; [3],41.67
same,Pathway Sensitivity Status (normal or ultra),[1]; [4],"Ultra (When the ratio of the EC90 to EC10 is less than 81, the pathway is considered to be ultra-sensitive)"
same,Sensitivity Calculation Result (ratio of the EC90 to EC10 of activating agent),[1]; [4],29.39
same,EC10 Concentration,[1]; NSCLC tumor cell sample C15,0.0024 nM
same,EC90,[1]; NSCLC tumor cell sample C15,0.1 nM
same,EC10 Concentration,[1]; NSCLC tumor cell sample C23,0.0066 nM
same,EC90,[1]; NSCLC tumor cell sample C23,0.194 nM
HB-EGF,Pathway Sensitivity Status (normal or ultra),[1]; [3],"Ultra (When the ratio of the EC90 to EC10 is less than 81, the pathway is considered to be ultra-sensitive)"
same,Sensitivity Calculation Result (ratio of the EC90 to EC10 of activating agent),[1]; [3],63.75
same,Pathway Sensitivity Status (normal or ultra),[1]; [4],"Ultra (When the ratio of the EC90 to EC10 is less than 81, the pathway is considered to be ultra-sensitive)"
same,Sensitivity Calculation Result (ratio of the EC90 to EC10 of activating agent),[1]; [4],66.67
same,EC10 Concentration,[1]; NSCLC tumor cell sample C15,0.0016 nM
same,EC90,[1]; NSCLC tumor cell sample C15,0.102 nM
same,EC10 Concentration,[1]; NSCLC tumor cell sample C23,0.003 nM
same,EC90,[1]; NSCLC tumor cell sample C23,0.2 nM
NRG1,Pathway Sensitivity Status (normal or ultra),[2]; [5],"Ultra (When the ratio of the EC90 to EC10 is less than 81, the pathway is considered to be ultra-sensitive)"
same,Sensitivity Calculation Result (ratio of the EC90 to EC10 of activating agent),[2]; [5],11.19
same,EC10 Concentration,[2]; NSCLC tumor cell sample C23,0.399 nM
same,EC90,[2]; NSCLC tumor cell sample C23,4.46 nM
same,EC10 Concentration,[2]; breast tumor cell sample R20,0.236 nM
same,Pathway Sensitivity Status (normal or ultra),[2]; breast tumor cell sample R20,"Ultra (When the ratio of the EC90 to EC10 is less than 81, the pathway is considered to be ultra-sensitive)"
same,Sensitivity Calculation Result (EC90/EC10 ratio),[2]; breast tumor cell sample R20,18.44
same,EC90,[2]; breast tumor cell sample R20,2.14 nM
same,EC10 Concentration,[2]; breast tumor cell sample R36,0.215 nM
same,Pathway Sensitivity Status (normal or ultra),[2]; breast tumor cell sample R36,"Ultra (When the ratio of the EC90 to EC10 is less than 81, the pathway is considered to be ultra-sensitive)"
same,Sensitivity Calculation Result (EC90/EC10 ratio),[2]; breast tumor cell sample R36,27.61
same,EC90,[2]; breast tumor cell sample R36,1.96 nM
same,EC10 Concentration,[2]; breast tumor cell sample R39,0.173 nM
same,Pathway Sensitivity Status (normal or ultra),[2]; breast tumor cell sample R39,"Ultra (When the ratio of the EC90 to EC10 is less than 81, the pathway is considered to be ultra-sensitive)"
same,Sensitivity Calculation Result (EC90/EC10 ratio),[2]; breast tumor cell sample R39,45.96
same,EC90,[2]; breast tumor cell sample R39,1.6 nM
same,EC10 Concentration,[2]; breast tumor cell sample R82,0.193 nM
same,Pathway Sensitivity Status (normal or ultra),[2]; breast tumor cell sample R82,Normal (otherwise the pathway is considered to be normally sensitive)
same,Sensitivity Calculation Result (EC90/EC10 ratio),[2]; breast tumor cell sample R82,95.1
same,EC90,[2]; breast tumor cell sample R82,1.79 nM
same,EC10 Concentration,[2]; breast tumor cell sample R131,0.133 nM
same,Pathway Sensitivity Status (normal or ultra),[2]; breast tumor cell sample R131,"Ultra (When the ratio of the EC90 to EC10 is less than 81, the pathway is considered to be ultra-sensitive)"
same,Sensitivity Calculation Result (EC90/EC10 ratio),[2]; breast tumor cell sample R131,38.32
same,EC90,[2]; breast tumor cell sample R131,1.23 nM
TGF alpha,Pathway Sensitivity Status (normal or ultra),[1]; [3],"Ultra (When the ratio of the EC90 to EC10 is less than 81, the pathway is considered to be ultra-sensitive)"
same,Sensitivity Calculation Result (ratio of the EC90 to EC10 of activating agent),[1]; [3],44.15
same,Pathway Sensitivity Status (normal or ultra),[1]; [4],"Ultra (When the ratio of the EC90 to EC10 is less than 81, the pathway is considered to be ultra-sensitive)"
same,Sensitivity Calculation Result (ratio of the EC90 to EC10 of activating agent),[1]; [4],21.25
same,EC10 Concentration,[1]; NSCLC tumor cell sample C15,0.0082 nM
same,EC90,[1]; NSCLC tumor cell sample C15,0.362 nM
same,EC10 Concentration,[1]; NSCLC tumor cell sample C23,0.0088 nM
same,EC90,[1]; NSCLC tumor cell sample C23,0.187 nM
